Assay results published in patent US20260209247A1, “Substituted Tricyclic Compounds” (Lupin Limited, priority 2019, published 2026).

Key:
[1] = target: T1, protein-protein interaction between hSOS1 and hKRASG12C (Homo sapiens, UniProt Q07889); test: KRAS-SOS1 interaction assay (HTRF); assay type: binding; details: GST-hSOS1 564-1049aa, HIS-hKRASG12C, read-out: KRAS-SOS1 Interaction inhibition IC50
T1 construct: GST-hSOS1, 564-1049aa expressed and purified in-house
T1 sequence (Q07889 564-1049): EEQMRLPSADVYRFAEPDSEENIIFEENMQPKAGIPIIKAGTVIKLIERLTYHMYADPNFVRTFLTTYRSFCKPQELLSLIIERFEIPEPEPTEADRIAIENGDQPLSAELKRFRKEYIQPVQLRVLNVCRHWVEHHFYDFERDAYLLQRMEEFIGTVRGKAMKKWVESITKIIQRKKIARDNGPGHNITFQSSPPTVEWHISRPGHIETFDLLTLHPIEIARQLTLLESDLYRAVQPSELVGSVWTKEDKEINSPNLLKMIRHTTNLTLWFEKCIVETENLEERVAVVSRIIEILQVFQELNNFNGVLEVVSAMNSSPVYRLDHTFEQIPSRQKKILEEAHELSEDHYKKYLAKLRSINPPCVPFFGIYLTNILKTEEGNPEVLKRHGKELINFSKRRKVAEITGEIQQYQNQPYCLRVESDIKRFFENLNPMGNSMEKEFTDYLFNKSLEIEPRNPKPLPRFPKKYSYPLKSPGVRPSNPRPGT
How it was run: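 GST-hSOS1 (564-1049aa) at 10-50 nM working solution pre-incubated with compounds 10 min at 20° C in HEPES pH 7.4 buffer with EDTA, DTT, BSA and Igepal. HIS-hKRASG12C (100-300 nM working solution) added for 30-60 min, then anti-GST-d2/anti-HIS-Tb detection; percent inhibition from the 665/620 nm ratio.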

[2] = target: T2, nucleotide exchange on hKRASG12C mediated by hSOS1 (Homo sapiens, UniProt Q07889); test: Guanine nucleotide exchange assay (GNEA, HTRF); assay type: biochemical; details: HIS-hSOS1 564-1049aa mediated GTP loading onto GST-hKRASG12C 1-169aa, read-out: Guanine nucleotide exchange inhibition IC50
T2 construct: HIS-hSOS1, 564-1049aa mediated GTP loading onto GST-hKRASG12C; His (N); made in house
T2 sequence (Q07889 564-1049): T1 sequence (Q07889 564-1049)
How it was run: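 Compounds were pre-incubated 10 min at 20 °C with HIS-hSOS1 (564-1049aa) and EDA-GTP-DY-647P1 (working solution 10-50 nM and 200 nM) in pH 7.4 HEPES with NaCl, MgCl2, DTT, BSA and Igepal. GST-hKRASG12C (1-169aa, 25-125 nM working solution) plus anti-GST-Tb was added for 30-60 min at 20 °C. Percent inhibition came from the HTRF 665/620 nm ratio.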

[3] = test system: pERK after EGF stimulation in DLD1 cells; test: ERK phosphorylation assay (alphascreen pERK); assay type: cell-based; details: Homo sapiens, DLD-1, 2 h compound, 200 ng/ml hEGF for 5 minutes, read-out: ERK phosphorylation inhibition IC50
How it was run: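 DLD1 cells pretreated with test compounds for 2 h, then stimulated with 200 ng/ml hEGF for 5 min. Lysates assayed by AlphaScreen SureFire for ERK1/2 p-T202/Y204, read after 2 h at 25–28 °C. % inhibition relative to the stimulated-minus-unstimulated vehicle window.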

Molecule `CCN1C(=O)COc2cc3nc(C)nc(N[C@H](C)c4cccc(C(F)(F)CO)c4F)c3cc21` [Compound 13, (R)-4-((1-(3-(1,1-difluoro-2-hydroxyethyl)-2-fluorophenyl)ethyl)amino)-6-ethyl-2-methyl-6H-[1,4]oxazino[3,2-g]quinazolin-7(8H)-one] has an IC50 [1] of 1 to 10 nM, an IC50 [2] of 1 to 30 nM and an IC50 [3] of 1 to 200 nM.
`Cc1nc(N[C@H](C)c2cccc(C(F)(F)CO)c2F)c2cc3c(cc2n1)OC(C)(C)C(=O)N3C` [Compound 18, (R)-4-((1-(3-(1,1-difluoro-2-hydroxyethyl)-2-fluorophenyl)ethyl)amino)-2,6,8,8-tetramethyl-6H-[1,4]oxazino[3,2-g]quinazolin-7(8H)-one] gave an IC50 [1] of 1 to 10 nM, an IC50 [2] of 1 to 30 nM and an IC50 [3] of 1 to 200 nM.
With `Cc1nc(N[C@H](C)c2cccc(C(F)(F)CO)c2F)c2cc3c(cc2n1)OC1(CC1)C(=O)N3C` [Compound 25, (R)-4′-((1-(3-(1,1-difluoro-2-hydroxyethyl)-2-fluorophenyl)ethyl)amino)-2′,6′-dimethylspiro[cyclopropane-1,8′-[1,4]oxazino[3,2-g]quinazolin]-7′(6′H)-one] the IC50 [1] was 1 to 10 nM, the IC50 [2] was 1 to 30 nM and the IC50 [3] was 1 to 200 nM.
Work on `Cc1nc(N[C@H](C)c2cccc(C(F)(F)C(C)(C)O)c2F)c2cc3c(cc2n1)N(C)C(C)(C)C(=O)N3C` [Compound 28, (R)-4-((1-(3-(1,1-difluoro-2-hydroxy-2-methylpropyl)-2-fluorophenyl)ethyl)amino)-2,6,8,8,9-pentamethyl-8,9-dihydropyrazino[2,3-g]quinazolin-7(6H)-one] yielded an IC50 [1] of 1 to 10 nM, an IC50 [2] of 1 to 30 nM and an IC50 [3] of 1 to 200 nM.
`Cc1nc(N[C@H](C)c2cccc(C(F)(F)C(C)(C)O)c2F)c2cc3c(cc2n1)c(=O)n(C)c(=O)n3C` [Compound 29, (R)-9-((1-(3-(1,1-difluoro-2-hydroxy-2-methylpropyl)-2-fluorophenyl)ethyl)amino)-1,3,7-trimethylpyrimido[4,5-g]quinazoline-2,4(1H,3H)-dione] showed an IC50 [1] of 1 to 10 nM, an IC50 [2] of 1 to 30 nM and an IC50 [3] of 1 to 200 nM.
Molecule `Cc1nc(N[C@H](C)c2cccc(C(F)(F)C(C)(C)O)c2F)c2cc3c(cc2n1)OC(C)(C)CN3C` [Compound 34, (R)-1,1-Difluoro-1-(2-fluoro-3-(1-((2,6,8,8-tetramethyl-7,8-dihydro-6H-[1,4]oxazino [3,2-g]quinazolin-4-yl)amino)ethyl)phenyl)-2-methylpropan-2-ol] has an IC50 [1] of 1 to 10 nM, an IC50 [2] of 31 to 130 nM and an IC50 [3] of 1 to 200 nM.
`Cc1nc(N[C@H](C)c2cccc(C(F)(F)CO)c2F)c2cc3c(cc2n1)OC(C)(C)CN3C` [Compound 35, (R)-2,2-Difluoro-2-(2-fluoro-3-(1-((2,6,8,8-tetramethyl-7,8-dihydro-6H-[1,4]oxazino[3,2-g]quinazolin-4-yl)amino)ethyl)phenyl)ethan-1-ol] was tested, and the IC50 [1] was 1 to 10 nM, the IC50 [2] was 1 to 30 nM and the IC50 [3] was 1 to 200 nM.
With `Cc1nc(N[C@H](C)c2cccc(C(F)(F)C(C)(C)O)c2F)c2cc3c(cc2n1)OCC(C)(C)N3C` [Compound 37, (R)-1,1-Difluoro-1-(2-fluoro-3-(1-((2,6,7,7-tetramethyl-7,8-dihydro-6H-[1,4]oxazino[3,2-g]quinazolin-4-yl)amino)ethyl)phenyl)-2-methylpropan-2-ol] the IC50 [1] was 1 to 10 nM, the IC50 [2] was 1 to 30 nM and the IC50 [3] was 1 to 200 nM.
Molecule `Cc1nc(N[C@H](C)c2cccc(C(F)(F)C(C)(C)O)c2F)c2cc3c(cc(C)c(=O)n3C)cc2n1` [Compound 38, (R)-4-((1-(3-(1,1-Difluoro-2-hydroxy-2-methylpropyl)-2-fluorophenyl)ethyl)amino)-2,6,8-trimethylpyrido[2,3-g]quinazolin-7(6H)-one] has an IC50 [1] of 1 to 10 nM, an IC50 [2] of 1 to 30 nM and an IC50 [3] of 1 to 200 nM.
`Cc1nc(N[C@H](C)c2cccc(C(F)(F)C(C)(C)O)c2F)c2cc3c(cc2n1)nc(C)c(=O)n3C` [Compound 39, (R)-4-((1-(3-(1,1-Difluoro-2-hydroxy-2-methylpropyl)-2-fluorophenyl)ethyl)amino)-2,6,8-trimethylpyrazino[2,3-g]quinazolin-7(6H)-one] showed an IC50 [1] of 1 to 10 nM, an IC50 [2] of 1 to 30 nM and an IC50 [3] of 1 to 200 nM.
Molecule `Cc1nc(N[C@H](C)c2cccc(C(F)(F)C(C)(C)O)c2F)c2cc3c(cc2n1)C(C)(C)CC(=O)N3C` [Compound 42, (R)-4-((1-(3-(1,1-difluoro-2-hydroxy-2-methylpropyl)-2-fluorophenyl)ethyl)amino)-2,6,9,9-tetramethyl-8,9-dihydropyrido[2,3-g]quinazolin-7(6H)-one] has an IC50 [1] of 1 to 10 nM, an IC50 [2] of 1 to 30 nM and an IC50 [3] of 1 to 200 nM.
`Cc1nc(N[C@H](C)c2cccc(C(F)(F)C(C)(C)O)c2F)c2cc3c(cc2n1)OCCN3C` [Compound 45, (R)-1-(3-(1-((2,6-dimethyl-7,8-dihydro-6H-[1,4]oxazino[3,2-g]quinazolin-4-yl)amino)ethyl)-2-fluorophenyl)-1,1-difluoro-2-methylpropan-2-ol] showed an IC50 [1] of 1 to 10 nM, an IC50 [2] of 31 to 130 nM and an IC50 [3] of 1 to 200 nM.
`Cc1nc(N[C@H](C)c2cccc(C(F)(F)C(C)(C)O)c2F)c2cc3c(c(F)c2n1)OCC(=O)N3C` [Compound 47, (R)-4-((1-(3-(1,1-difluoro-2-hydroxy-2-methylpropyl)-2-fluorophenyl)ethyl)amino)-10-fluoro-2,6-dimethyl-6H-[1,4]oxazino[3,2-g]quinazolin-7(8H)-one] was tested, and the IC50 [1] was 11 to 25 nM, the IC50 [2] was 31 to 130 nM and the IC50 [3] was 1 to 200 nM.
With `Cc1nc(N[C@H](C)c2cccc(C(F)(F)C(C)(O)CF)c2F)c2cc3c(cc2n1)OC(C)(C)C(=O)N3C` (stereo partly drawn) [Compound 54, (R&S)-4-(((1R)-1-(2-fluoro-3-(1,1,3-trifluoro-2-hydroxy-2-methylpropyl)phenyl)ethyl)amino)-2,6,8,8-tetramethyl-6H-[1,4]oxazino[3,2-g]quinazolin-7(8H)-one] the IC50 [1] was 1 to 10 nM, the IC50 [2] was 1 to 30 nM and the IC50 [3] was 1 to 200 nM.
`CNCC(C)(O)C(F)(F)c1cccc([C@@H](C)Nc2nc(C)nc3cc4c(cc23)N(C)C(=O)C(C)(C)O4)c1F` (stereo partly drawn) [Compound 55, (R&S)-4-(((1R)-1-(3-(1,1-difluoro-2-hydroxy-2-methyl-3-(methylamino)propyl)-2-fluorophenyl)ethyl)amino)-2,6,8,8-tetramethyl-6H-[1,4]oxazino[3,2-g]quinazolin-7(8H)-one] gave an IC50 [1] of 1 to 10 nM, an IC50 [2] of 1 to 30 nM and an IC50 [3] of 1 to 200 nM.
`Cc1nc(N[C@H](C)c2cccc(C(F)(F)C(C)(C)O)c2F)c2cc3c(cc2n1)N(C)C(=O)C31CCCC1` [Compound 58, (R)-4′-((1-(3-(1,1-difluoro-2-hydroxy-2-methylpropyl)-2-fluorophenyl)ethyl)amino)-2′,8′-dimethylspiro[cyclopentane-1,6′-pyrrolo[3,2-g]quinazolin]-7′(8′H)-one] was tested, and the IC50 [1] was 1 to 10 nM, the IC50 [2] was 1 to 30 nM and the IC50 [3] was 1 to 200 nM.
Work on `Cc1nc(N[C@H](C)c2cccc(C(F)(F)CO)c2F)c2cc3c(cc2n1)N(C)C(=O)C31CCCC1` [Compound 62, (R)-4′-((1-(3-(1,1-difluoro-2-hydroxyethyl)-2-fluorophenyl)ethyl)amino)-2′,8′-dimethylspiro[cyclopentane-1,6′-pyrrolo[3,2-g]quinazolin]-7′(8′H)-one] yielded an IC50 [1] of 1 to 10 nM, an IC50 [2] of 1 to 30 nM and an IC50 [3] of 1 to 200 nM.
